Measurements published in patent publication US5403840A, “Inclusion complexes of N-ethoxycarbonyl 1-3-morpholino-sydnonimine or salts formed with cyclodextrin-derivatives, preparation thereof and pharmaceutical compositions containing the same” (Chinoin Gyogyszer-Es Vegyeszeti Termekek Gyar Rt., priority 1990, dated 1995).
Values after ≈ are worked out from the molar mass of the structure shown.

Legend:
[1] = Membrane permeation test, dialysis profile of Molsidomin-β-CD granule; type: physicochemical; settings: Molsidomin 1 mg/ml or equivalent granule, 100% diffusion = 0.33 mg/ml
Procedure: Visking-type cellophane membrane (average pore diameter 24 angstroms) was used. Aqueous solutions of Molsidomin at a concentration of 1 and 2 mg/ml were put in the donor cell, while distilled water was placed in the receptor compartment of the membrane permeation cell apparatus.
Dialysis profile of Molsidomin-β-CD granule was examined using the same permeation cell as described above.
Molsidomin at a concentration of 1 mg/ml and equivalent amount of complex granule were used in the experiment
100% diffusion corresponding to 0.33 mg/ml Molsidomin concentration in the receptor cell.

[2] = Molsidomin alone, no cyclodextrin; 37 °C; donor 1 and 2 mg/ml
Procedure: Visking-type cellophane membrane (average pore diameter 24 angstroms) was used. Aqueous solutions of Molsidomin at a concentration of 1 and 2 mg/ml were put in the donor cell, while distilled water was placed in the receptor compartment of the membrane permeation cell apparatus. The solutions were stirred by magnetic stirrers and were kept at 37+1° C. At appropriate time intervals samples were pipetted from the receptor solutions and concentration of Molsidomin permeated from the donor cell was measured by UV-spectrophotometry. The test was repeated in the presence of different cyclodextrins at different concentrations in the donor cell compartment.

[3] = 25° C.; cited from earlier work
[4] = pH value of 5-7; cited from earlier work
[5] = oral; cited from earlier work
angina pectoris = settings: cited from earlier work
[6] = percutaneous, cited from earlier work
[7] = compared to the organic nitrates; cited from earlier work

Concentration of Molsidomin in the receptor cell ([1]; 1 hour): 200 µg/mL
Concentration of Molsidomin in the receptor cell ([1]; 2 hours): 290 µg/mL
Concentration of Molsidomin in the receptor cell ([1]; 3 hours): 320 µg/mL
Concentration of Molsidomin in the receptor cell ([1]; 4 hours): 340 µg/mL
Diffusion half life (T 50%) of Molsidomin [2]: 1.0 h
Structure (SMILES): CCOC(=O)[N-]c1cn(N2CCOCC2)n[o+]1 [Molsidomin, N-ethoxycarbonyl-3-morpholino-sydnonimine]
solubility in water [3]: 18 mg/mL (≈ 74.3 mM)
stability in water [4]: stable
absorption along the whole Gi-tract [5]: fairly absorbed
bioavailability [5]: satisfactory
duration of effect compared to the organic nitrates (angina pectoris; compared to the organic nitrates): more lasting
duration of effect of oral preparation (angina pectoris; oral, 2 mg of the active ingredient): 3 to 5 h
bioavailability through the skin ([6]; Molsidomin itself): 4%
resorption through the skin ([6]; Molsidomin itself): resorbed slowly and to a small extent
resorption of Molsidomin relative to propylene-glycol [6]: of similar extent, and of similar quantity
habit forming [7]: does not become habit forming
headaches [7]: rarely induces headaches which are also less severe
side-effects [7]: less side-effects
